Data: patent US20220348592A1, “FUSED HETEROCYCLIC DERIVATIVES” (Janssen Sciences Ireland Unlimited Company, priority 2019, published 2022)

Tests used:
[1] = system: HBV; experiment: Anti-HBV activity: intracellular HBV DNA by real-time PCR in HepG2.117 cell line; type: cell-based, Hepatitis B virus; settings: Hepatitis B virus, 72 h; HepG2.117 cells, 3 days of treatment, intracellular HBV DNA by real-time PCR, mean value; read-out: HBV-AVE-HepG2.117 EC50 (μM, mean value)
Procedure, shortened: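 HepG2.117 cells, a Tet-off inducible HBV-producing line, induced to replicate HBV and then treated with serially diluted compound. After 3 days, intracellular HBV DNA quantified by real-time PCR with HBV-specific primers and probe.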

[2] = Cytotoxicity in HepG2.117 cells, ATPlite Luminescence Assay; type: cell-based, human; settings: human, incubated for 3 days, mean value, read-out: TOX-HepG2.117 CC50 (μM, mean value)
Protocol: Cytotoxicity of the compounds was tested using HepG2 or HepG2.117 cells, incubated for 3 days in the presence of compounds. The viability of the cells was assessed using the PERKIN ELMER ATPlite Luminescence Assay System.”

Structure (SMILES) | EC50 [1] | CC50 at 3 days [2]
COc1ccc(CN2CCn3nc4c(c3C2=O)CN(C(=O)c2ccc(Cl)c(Cl)c2)[C@H](C)C4)c(F)c1 [Example C168] | 0.046 µM | 6.11 µM
C[C@@H]1Cc2nn3c(c2CN1C(=O)c1ccc(Cl)c(Cl)c1)C(=O)N(Cc1ncoc1C(F)(F)F)CC3 [Example C169] | 0.831 µM | > 50 µM
C[C@@H]1Cc2nn3c(c2CN1C(=O)c1ccc(Cl)c(Cl)c1)C(=O)N(Cc1ccc(C#N)cc1C(F)(F)F)CC3 [Example C170] | 0.432 µM | > 50 µM
C[C@@H]1Cc2nn3c(c2CN1C(=O)c1ccc(Cl)c(Cl)c1)C(=O)N(Cc1ccc(C(F)(F)F)nc1)CC3 [Example C171] | 0.082 µM | 15.3 µM
C[C@@H]1Cc2nn3c(c2CN1C(=O)c1ccc(Cl)c(Cl)c1)C(=O)N(Cc1coc(C(F)(F)F)n1)CC3 [Example C172] | 0.19 µM | > 50 µM
Cc1cn(C)c(CN2CCn3nc4c(c3C2=O)CN(C(=O)c2ccc(Cl)c(Cl)c2)[C@H](C)C4)n1 [Example C173] | 0.41 µM | > 50 µM
C[C@@H]1Cc2nn3c(c2CN1C(=O)c1ccc(Cl)c(Cl)c1)C(=O)N(Cc1ccccc1OC(F)(F)F)CC3 [Example C174] | 0.18 µM | 15.3 µM
C[C@@H]1Cc2nn3c(c2CN1C(=O)c1ccc(Cl)c(Cl)c1)C(=O)N(Cc1ccc(C#N)cc1F)CC3 [Example C175] | 0.038 µM | 35.5 µM
C[C@@H]1Cc2nn3c(c2CN1C(=O)c1ccc(Cl)c(Cl)c1)C(=O)N(Cc1cn2ccc(C(F)(F)F)cc2n1)CC3 [Example C176] | 0.274 µM | 15 µM
Cc1cc(F)ncc1CN1CCn2nc3c(c2C1=O)CN(C(=O)c1ccc(Cl)c(Cl)c1)[C@H](C)C3 [Example C177] | 0.136 µM | > 50 µM
C[C@@H]1Cc2nn3c(c2CN1C(=O)c1ccc(Cl)c(Cl)c1)C(=O)N(Cc1cc(C#N)c(F)cc1F)CC3 [Example C178] | 0.207 µM | > 50 µM
CC(C)c1nnc(CN2CCn3nc4c(c3C2=O)CN(C(=O)c2ccc(Cl)c(Cl)c2)[C@H](C)C4)o1 [Example C179] | 0.219 µM | > 50 µM
C[C@@H]1Cc2nn3c(c2CN1C(=O)c1ccc(Cl)c(Cl)c1)C(=O)N(Cc1cc(C#N)ccc1F)CC3 [Example C180] | 0.123 µM | > 50 µM
C[C@@H]1Cc2nn3c(c2CN1C(=O)c1ccc(Cl)c(Cl)c1)C(=O)N(Cc1cc(F)ccc1C(F)(F)F)CC3 [Example C181] | 0.152 µM | > 50 µM
C[C@@H]1Cc2nn3c(c2CN1C(=O)c1ccc(Cl)c(Cl)c1)C(=O)N(Cc1cc(C(F)F)on1)CC3 [Example C182] | 0.075 µM | > 50 µM
CC(C)c1noc(C(C)N2CCn3nc4c(c3C2=O)CN(C(=O)c2ccc(Cl)c(Cl)c2)[C@H](C)C4)n1 (stereo partly shown) [Example C183] | 0.108 µM | > 50 µM
CC(c1nnnn1C1CC1)N1CCn2nc3c(c2C1=O)CN(C(=O)c1ccc(Cl)c(Cl)c1)[C@H](C)C3 (stereo partly shown) [Example C184] | > 2.5 µM | > 50 µM
CC(c1cccnc1)N1CCn2nc3c(c2C1=O)CN(C(=O)c1ccc(Cl)c(Cl)c1)[C@H](C)C3 (stereo partly shown) [Example C185] | 0.114 µM | > 50 µM
CC(c1ccc(F)c(F)c1)N1CCn2nc3c(c2C1=O)CN(C(=O)c1ccc(Cl)c(Cl)c1)[C@H](C)C3 (stereo partly shown) [Example C186] | 0.049 µM | 21.6 µM
CC(C)Cc1nnc(C(C)N2CCn3nc4c(c3C2=O)CN(C(=O)c2ccc(Cl)c(Cl)c2)[C@H](C)C4)o1 (stereo partly shown) [Example C187] | 0.155 µM | > 50 µM
CC(c1cccc(F)c1)N1CCn2nc3c(c2C1=O)CN(C(=O)c1ccc(Cl)c(Cl)c1)[C@H](C)C3 (stereo partly shown) [Example C188] | 0.04 µM | 49.6 µM
CC(c1cc(F)ccc1F)N1CCn2nc3c(c2C1=O)CN(C(=O)c1ccc(Cl)c(Cl)c1)[C@H](C)C3 (stereo partly shown) [Example C189] | 0.043 µM | 41.8 µM
CC(c1nc(C2CC2)no1)N1CCn2nc3c(c2C1=O)CN(C(=O)c1ccc(Cl)c(Cl)c1)[C@H](C)C3 (stereo partly shown) [Example C190] | 0.115 µM | 33.1 µM
CC(c1cccc2cccnc12)N1CCn2nc3c(c2C1=O)CN(C(=O)c1ccc(Cl)c(Cl)c1)[C@H](C)C3 (stereo partly shown) [Example C191] | 0.097 µM | 33 µM

Structure (SMILES) | EC50 [1] | CC50 at 3 days [2]
CC(c1ccc(F)cc1F)N1CCn2nc3c(c2C1=O)CN(C(=O)c1ccc(Cl)c(Cl)c1)[C@H](C)C3 (stereo partly shown) [Example C192] | 0.076 µM | 39.7 µM
Cc1nccnc1C(C)N1CCn2nc3c(c2C1=O)CN(C(=O)c1ccc(Cl)c(Cl)c1)[C@H](C)C3 (stereo partly shown) [Example C193] | 0.197 µM | > 50 µM
CC(c1cccc(OC(F)(F)F)c1)N1CCn2nc3c(c2C1=O)CN(C(=O)c1ccc(Cl)c(Cl)c1)[C@H](C)C3 (stereo partly shown) [Example C194] | 0.075 µM | 26.4 µM
C[C@@H]1Cc2nn3c(c2CN1C(=O)c1ccc(Cl)c(Cl)c1)C(=O)N(Cc1ccc(C#N)cn1)CC3 [Example C195] | 0.566 µM | > 50 µM
C[C@@H]1Cc2nn3c(c2CN1C(=O)c1ccc(Cl)c(Cl)c1)C(=O)N(Cc1cc(F)cc(F)c1)CC3 [Example C196] | 0.048 µM | 38 µM
C[C@@H]1Cc2nn3c(c2CN1C(=O)c1ccc(Cl)c(Cl)c1)C(=O)N(Cc1c(F)cncc1F)CC3 [Example C197] | 0.24 µM | > 50 µM
COc1ncc(CN2CCn3nc4c(c3C2=O)CN(C(=O)c2ccc(Cl)c(Cl)c2)[C@H](C)C4)cn1 [Example C198] | 0.053 µM | > 50 µM
C[C@@H]1Cc2nn3c(c2CN1C(=O)c1ccc(Cl)c(Cl)c1)C(=O)N(Cc1nc(Cl)ccc1F)CC3 [Example C199] | 0.33 µM | > 50 µM
C[C@@H]1Cc2nn3c(c2CN1C(=O)c1ccc(Cl)c(Cl)c1)C(=O)N(Cc1nnn(C)n1)CC3 [Example C200] | 0.25 µM | > 50 µM
C[C@@H]1Cc2nn3c(c2CN1C(=O)c1ccc(Cl)c(Cl)c1)C(=O)N(Cc1nnc(C2CC2)o1)CC3 [Example C201] | 0.229 µM | > 50 µM
C[C@@H]1Cc2nn3c(c2CN1C(=O)c1ccc(Cl)c(Cl)c1)C(=O)N(Cc1cn(C)cn1)CC3 [Example C202] | 0.071 µM | > 50 µM
C[C@@H]1Cc2nn3c(c2CN1C(=O)c1ccc(Cl)c(Cl)c1)C(=O)N(Cc1ccc(C#N)cc1OC(F)F)CC3 [Example C203] | 0.09 µM | > 50 µM
Cc1cc(CN2CCn3nc4c(c3C2=O)CN(C(=O)c2ccc(Cl)c(Cl)c2)[C@H](C)C4)ccc1C#N [Example C204] | 0.028 µM | 19.2 µM
Cc1cc(C#N)ccc1CN1CCn2nc3c(c2C1=O)CN(C(=O)c1ccc(Cl)c(Cl)c1)[C@H](C)C3 [Example C207] | 0.053 µM | 25.6 µM
C[C@@H]1Cc2nn3c(c2CN1C(=O)c1ccc(Cl)c(Cl)c1)C(=O)N(Cc1ccc(F)cn1)CC3 [Example C208] | 0.13 µM | > 50 µM
Cc1ncc(CN2CCn3nc4c(c3C2=O)CN(C(=O)c2ccc(Cl)c(Cl)c2)[C@H](C)C4)o1 [Example C209] | > 2.5 µM | > 50 µM
C[C@@H]1Cc2nn3c(c2CN1C(=O)c1ccc(Cl)c(Cl)c1)C(=O)N(Cc1ccnc(F)c1)CC3 [Example C210] | 0.062 µM | > 50 µM
C[C@@H]1Cc2nn3c(c2CN1C(=O)c1ccc(Cl)c(Cl)c1)C(=O)N(Cc1ccnc(C#N)c1)CC3 [Example C211] | 0.285 µM | > 50 µM
C[C@@H]1Cc2nn3c(c2CN1C(=O)c1ccc(Cl)c(Cl)c1)C(=O)N(Cc1cc(F)ccc1OC(F)F)CC3 [Example C212] | 0.05 µM | > 50 µM
C[C@@H]1Cc2nn3c(c2CN1C(=O)c1ccc(Cl)c(Cl)c1)C(=O)N(Cc1cccc(C(F)(F)F)n1)CC3 [Example C213] | 0.382 µM | 37.5 µM
Cc1ncoc1CN1CCn2nc3c(c2C1=O)CN(C(=O)c1ccc(Cl)c(Cl)c1)[C@H](C)C3 [Example C214] | 0.074 µM | > 50 µM
COc1ccc(C#N)cc1CN1CCn2nc3c(c2C1=O)CN(C(=O)c1ccc(Cl)c(Cl)c1)[C@H](C)C3 [Example C215] | 0.106 µM | > 50 µM
C[C@@H]1Cc2nn3c(c2CN1C(=O)c1ccc(Cl)c(Cl)c1)C(=O)N(Cc1ccc(F)c(C#N)c1)CC3 [Example C216] | 0.09 µM | > 50 µM
